Key:
HiBit-BRM fusion protein = molecular target: T1, HiBit-BRM fusion protein (Homo sapiens, UniProt P51531); assay: HiBiT-BRM cell-based degradation assay (Nano-Glo HiBiT Lytic Detection, 24 h); conditions: HeLa cells expressing HiBiT-BRM; for DC50: read-out: BRM HiBit Degradation IC50; for BRM HiBit Degradation Maximum measured: top dose 30 μM
T1 construct: expressed in transfected cells
Description: (§1) Procedure: A stable HeLa cell line expressing HiBiT-BRM was generated. On day 0, 5000 cells were seeded in 40 μL of media into each well of 384-well cell culture plates. On day 1, cells were treated with 120 nL DMSO or 120 nL of 3-fold serially DMSO-diluted compounds (10 points in duplicate with 30 μM as final top dose). Subsequently plates were incubated for 24 h in a standard tissue culture incubator and equilibrated at room temperature for 15 minutes. Nano-Glo HiBiT Lytic Detection System (Promega N3050) reagent was freshly prepared and 20 ul was added to each well. Upon addition of this LgBit-containing reagent, the HiBiT and LgBiT proteins associate to form the luminescent NanoBiT luciferase. The plates were shaken for 10 minutes at room temperature and the bioluminescence read using an EnVision plate reader (PerkinElmer).
(§2) The degradation % was calculated using the following formula: % degradation=100%−100%×(LumSample−LumLC)/(LumHC−LumLC). DMSO treated cells are employed as High Control (HC) and 2 μM of a known BRM/BRG1 degrader standard treated cells are employed as Low Control (LC).

[1] = molecular target: T2, HiBit-BRG1 fusion protein (Homo sapiens, UniProt P51532); assay: HiBiT-BRG1 cell-based degradation assay (Nano-Glo HiBiT Lytic Detection, 24 h); conditions: HeLa cells expressing HiBit-BRG1 and LgBit; for DC50: read-out: BRG1 HiBit Degradation IC50; for Dmax: HeLa, top dose 30 μM, read-out: BRG1 HiBit Degradation Maximum measured
T2 construct: expressed in transfected cells
T2 sequence (P51532 whole entry, the tested form may be a part): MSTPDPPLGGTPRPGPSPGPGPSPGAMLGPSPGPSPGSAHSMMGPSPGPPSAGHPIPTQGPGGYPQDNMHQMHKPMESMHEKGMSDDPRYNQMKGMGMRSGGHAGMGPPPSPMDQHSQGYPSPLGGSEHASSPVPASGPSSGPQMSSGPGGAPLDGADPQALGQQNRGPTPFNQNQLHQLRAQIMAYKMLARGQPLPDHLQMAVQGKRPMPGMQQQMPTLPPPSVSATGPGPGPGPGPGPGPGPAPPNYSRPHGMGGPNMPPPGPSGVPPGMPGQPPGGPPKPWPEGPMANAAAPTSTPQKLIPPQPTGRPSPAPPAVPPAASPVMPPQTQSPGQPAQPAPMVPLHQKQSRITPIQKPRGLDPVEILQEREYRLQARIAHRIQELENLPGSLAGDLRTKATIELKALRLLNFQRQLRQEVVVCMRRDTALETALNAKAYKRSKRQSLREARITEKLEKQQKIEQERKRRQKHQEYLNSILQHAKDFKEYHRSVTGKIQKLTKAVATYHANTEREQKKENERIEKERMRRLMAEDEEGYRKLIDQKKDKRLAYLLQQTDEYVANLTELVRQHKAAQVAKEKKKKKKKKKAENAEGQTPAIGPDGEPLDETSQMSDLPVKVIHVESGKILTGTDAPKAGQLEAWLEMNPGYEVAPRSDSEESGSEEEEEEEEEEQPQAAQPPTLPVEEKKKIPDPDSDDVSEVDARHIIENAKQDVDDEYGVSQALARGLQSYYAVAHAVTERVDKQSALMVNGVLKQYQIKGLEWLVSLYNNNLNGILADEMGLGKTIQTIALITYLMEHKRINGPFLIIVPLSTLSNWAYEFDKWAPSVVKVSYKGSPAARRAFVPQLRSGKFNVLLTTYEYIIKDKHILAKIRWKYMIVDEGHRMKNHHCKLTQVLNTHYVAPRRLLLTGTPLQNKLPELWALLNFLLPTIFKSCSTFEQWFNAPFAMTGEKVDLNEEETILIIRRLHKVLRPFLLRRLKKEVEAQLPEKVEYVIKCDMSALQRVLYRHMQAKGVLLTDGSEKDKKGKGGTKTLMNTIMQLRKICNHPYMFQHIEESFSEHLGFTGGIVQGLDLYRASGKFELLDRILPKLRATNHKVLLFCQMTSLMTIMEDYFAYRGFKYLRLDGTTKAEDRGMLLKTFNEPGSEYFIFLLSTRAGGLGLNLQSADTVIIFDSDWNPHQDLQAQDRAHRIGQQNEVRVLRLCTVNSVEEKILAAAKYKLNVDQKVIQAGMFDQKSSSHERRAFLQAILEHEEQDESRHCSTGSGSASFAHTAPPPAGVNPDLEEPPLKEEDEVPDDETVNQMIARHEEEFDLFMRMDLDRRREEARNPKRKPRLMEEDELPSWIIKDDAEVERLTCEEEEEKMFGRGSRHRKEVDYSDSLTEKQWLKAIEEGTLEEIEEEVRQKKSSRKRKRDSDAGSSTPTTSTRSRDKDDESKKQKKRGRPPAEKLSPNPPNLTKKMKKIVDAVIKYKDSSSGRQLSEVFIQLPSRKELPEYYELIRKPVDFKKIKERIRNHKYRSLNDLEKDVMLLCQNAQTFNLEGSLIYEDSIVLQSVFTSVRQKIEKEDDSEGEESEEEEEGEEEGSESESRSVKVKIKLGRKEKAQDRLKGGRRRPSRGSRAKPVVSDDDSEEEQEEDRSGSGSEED
Description: as §1, with “On day 1, cells were treated with 120 nL DMSO or 120 nL of 3-fold serially DMSO-diluted compounds (10 points in duplicate with 30 μM as final top dose). Subsequently plates were incubated for 24 h in a standard tissue culture incubator and equilibrated at room temperature for 15 minutes.” left out
For measurement of BRG1 degradation, a stable HeLa cell line expressing HiBit-BRG1 and LgBit was generated. The same protocol as above was then followed.
as §2

T1 sequence (P51531 whole entry, the tested form may be a part): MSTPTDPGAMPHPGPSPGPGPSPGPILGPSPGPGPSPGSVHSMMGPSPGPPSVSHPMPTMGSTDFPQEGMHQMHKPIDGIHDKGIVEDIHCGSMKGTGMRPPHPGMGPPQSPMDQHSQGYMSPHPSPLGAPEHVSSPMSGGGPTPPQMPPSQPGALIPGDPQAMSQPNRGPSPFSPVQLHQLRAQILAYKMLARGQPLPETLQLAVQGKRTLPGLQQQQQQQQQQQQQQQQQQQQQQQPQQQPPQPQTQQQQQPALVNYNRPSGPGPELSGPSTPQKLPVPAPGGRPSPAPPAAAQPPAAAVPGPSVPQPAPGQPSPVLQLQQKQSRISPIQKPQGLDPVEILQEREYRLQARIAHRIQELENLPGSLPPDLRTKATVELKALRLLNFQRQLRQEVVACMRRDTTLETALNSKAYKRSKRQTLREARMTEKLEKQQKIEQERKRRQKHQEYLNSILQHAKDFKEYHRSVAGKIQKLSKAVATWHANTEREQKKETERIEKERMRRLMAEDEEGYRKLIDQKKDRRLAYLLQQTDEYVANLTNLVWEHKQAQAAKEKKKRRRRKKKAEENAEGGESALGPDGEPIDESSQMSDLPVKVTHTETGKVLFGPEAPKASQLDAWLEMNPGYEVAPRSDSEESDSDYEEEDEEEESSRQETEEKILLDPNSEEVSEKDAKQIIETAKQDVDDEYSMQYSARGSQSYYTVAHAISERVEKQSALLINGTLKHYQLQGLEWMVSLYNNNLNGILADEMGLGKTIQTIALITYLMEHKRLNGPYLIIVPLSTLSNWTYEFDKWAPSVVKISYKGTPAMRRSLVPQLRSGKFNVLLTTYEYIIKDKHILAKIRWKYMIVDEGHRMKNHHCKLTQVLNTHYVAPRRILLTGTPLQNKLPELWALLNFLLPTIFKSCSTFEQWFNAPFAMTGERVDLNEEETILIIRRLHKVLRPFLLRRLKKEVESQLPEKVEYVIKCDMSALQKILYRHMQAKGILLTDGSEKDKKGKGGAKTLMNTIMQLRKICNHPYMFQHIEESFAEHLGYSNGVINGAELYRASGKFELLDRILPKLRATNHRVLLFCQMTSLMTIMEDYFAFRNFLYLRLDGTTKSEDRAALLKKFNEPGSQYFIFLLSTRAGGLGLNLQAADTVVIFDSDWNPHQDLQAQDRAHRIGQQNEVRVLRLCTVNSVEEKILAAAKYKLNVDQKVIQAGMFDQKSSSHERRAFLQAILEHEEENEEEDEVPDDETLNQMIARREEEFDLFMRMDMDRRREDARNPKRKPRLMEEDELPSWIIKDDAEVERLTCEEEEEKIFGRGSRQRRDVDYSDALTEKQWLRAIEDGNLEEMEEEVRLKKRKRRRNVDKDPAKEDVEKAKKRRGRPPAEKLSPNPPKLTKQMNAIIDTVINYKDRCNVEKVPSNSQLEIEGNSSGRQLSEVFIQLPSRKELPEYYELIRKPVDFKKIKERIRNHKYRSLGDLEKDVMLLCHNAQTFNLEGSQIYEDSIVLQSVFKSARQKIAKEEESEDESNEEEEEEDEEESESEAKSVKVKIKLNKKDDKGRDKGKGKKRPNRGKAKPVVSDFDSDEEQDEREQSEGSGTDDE

Compound | DC50 (HiBit-BRM fusion protein) | BRM HiBit Degradation Maximum measured (HiBit-BRM fusion protein) | DC50 [1] | Dmax [1]
CS(=O)(=O)n1ccc(C(=O)NCC(=O)Nc2nc(-c3cccc(-c4ccnc(N5CCN(C(=O)C6CC6CNC(=O)COc6cccc7c6C(=O)N(C6CCC(=O)NC6=O)C7=O)CC5)c4)c3)cs2)c1 (stereo not drawn) [Compound 32, N-[2-[[4-[3-[2-[4-[2-[[[2-[2-(2,6-dioxo-3-piperidyl)-1,3-dioxo-isoindolin-4-yl]oxyacetyl]amino]methyl]cyclopropanecarbonyl]piperazin-1-yl]-4-pyridyl]phenyl]thiazol-2-yl]amino]-2-oxo-ethyl]-1-methylsulfonyl-pyrrole-3-carboxamide] | > 10 µM | C (‘C’ = Maximum degradation <50%) | > 10 µM | < 50%
CS(=O)(=O)n1ccc(C(=O)NCC(=O)Nc2nc(-c3cccc(-c4ccnc(N5CCN(C(=O)CCOCCOCCOc6cccc7c6C(=O)N(C6CCC(=O)NC6=O)C7=O)CC5)c4)c3)cs2)c1 (stereo not drawn) [Compound 34, N-(2-((4-(3-(2-(4-(3-(2-(2-((2-(2,6-dioxopiperidin-3-yl)-1,3-dioxoisoindolin-4-yl)oxy)ethoxy)ethoxy)propanoyl)piperazin-1-yl)pyridin-4-yl)phenyl)thiazol-2-yl)amino)-2-oxoethyl)-1-(methylsulfonyl)-1H-pyrrole-3-carboxamide] | 0.1 to 1 µM | B (‘B’ = Maximum degradation ≥50% and ≤75%) | 0.1 to 1 µM | 50 to 75%
CS(=O)(=O)n1ccc(C(=O)NCC(=O)Nc2nc(-c3cccc(-c4ccnc(N5CCN(C(=O)CCCCCCCCCCNc6ccc7c(c6)C(=O)N(C6CCC(=O)NC6=O)C7=O)CC5)c4)c3)cs2)c1 (stereo not drawn) [Compound 35, N-[2-[[4-[3-[2-[4-[11-[[2-(2,6-dioxo-3-piperidyl)-1,3-dioxo-isoindolin-5-yl]amino]undecanoyl]piperazin-1-yl]-4-pyridyl]phenyl]thiazol-2-yl]amino]-2-oxo-ethyl]-1-methylsulfonyl-pyrrole-3-carboxamide] | 0.1 to 1 µM | A (‘A’ = Maximum degradation >75%) | < 0.1 µM | > 75%
CS(=O)(=O)n1ccc(C(=O)NCC(=O)Nc2nc(-c3cccc(-c4ccnc(N5CCN(C(=O)C6CC6CNC(=O)COc6ccc7c(c6)C(=O)N(C6CCC(=O)NC6=O)C7=O)CC5)c4)c3)cs2)c1 (stereo not drawn) [Compound 39, N-[2-[[4-[3-[2-[4-[2-[[[2-[2-(2,6-dioxo-3-piperidyl)-1,3-dioxo-isoindolin-5-yl]oxyacetyl]amino]methyl]cyclopropanecarbonyl]piperazin-1-yl]-4-pyridyl]phenyl]thiazol-2-yl]amino]-2-oxo-ethyl]-1-methylsulfonyl-pyrrole-3-carboxamide] | > 10 µM | C (‘C’ = Maximum degradation <50%) | > 10 µM | < 50%
CS(=O)(=O)n1ccc(C(=O)NCC(=O)Nc2nc(-c3cccc(-c4ccnc(N5CCN(C(=O)CCOCCOCCNc6ccc7c(c6)C(=O)N(C6CCC(=O)NC6=O)C7=O)CC5)c4)c3)cs2)c1 (stereo not drawn) [Compound 40, N-(2-((4-(3-(2-(4-(3-(2-(2-((2-(2,6-dioxopiperidin-3-yl)-1,3-dioxoisoindolin-5-yl)amino)ethoxy)ethoxy)propanoyl)piperazin-1-yl)pyridin-4-yl)phenyl)thiazol-2-yl)amino)-2-oxoethyl)-1-(methylsulfonyl)-1H-pyrrole-3-carboxamide] | < 0.1 µM | A (‘A’ = Maximum degradation >75%) | < 0.1 µM | > 75%
Cc1c(C(=O)NCC(=O)Nc2nc(-c3cccc(-c4ccnc(N(C)CC(=O)NCCCCCCCCNC(=O)COc5cccc6c5C(=O)N(C5CCC(=O)NC5=O)C6=O)c4)c3)cs2)cn(S(C)(=O)=O)c1C (stereo not drawn) [Compound 41, N-[2-[[4-[3-[2-[[2-[8-[[2-[2-(2,6-dioxo-3-piperidyl)-1,3-dioxo-isoindolin-4-yl]oxyacetyl]amino]octylamino]-2-oxo-ethyl]-methyl-amino]-4-pyridyl]phenyl]thiazol-2-yl]amino]-2-oxo-ethyl]-4,5-dimethyl-1-methylsulfonyl-pyrrole-3-carboxamide] | > 10 µM | C (‘C’ = Maximum degradation <50%) | > 10 µM | < 50%
CS(=O)(=O)n1ccc(C(=O)NCC(=O)Nc2nc(-c3cccc(-c4cccc(CNC(=O)CCOCCOCCNc5cccc6c5C(=O)N(C5CCC(=O)NC5=O)C6=O)c4)c3)cs2)c1 (stereo not drawn) [Compound 42, N-(2-((4-(3′-((3-(2-(2-((2-(2,6-dioxopiperidin-3-yl)-1,3-dioxoisoindolin-4-yl)amino)ethoxy)ethoxy)propanamido)-methyl)-[1,1′-biphenyl]-3-yl)thiazol-2-yl)amino)-2-oxoethyl)-1-(methylsulfonyl)-1H-pyrrole-3-carboxamide] | > 10 µM | C (‘C’ = Maximum degradation <50%) | 0.1 to 1 µM | 50 to 75%

Other lines, results leading:

DC50 (HiBit-BRM fusion protein) | BRM HiBit Degradation Maximum measured (HiBit-BRM fusion protein) | DC50 [1] | Dmax [1] | Compound
> 10 µM | C (‘C’ = Maximum degradation <50%) | > 10 µM | < 50% | CS(=O)(=O)n1ccc(C(=O)NCC(=O)Nc2nc(-c3cccc(-c4ccnc(N5CCN(C(=O)CCCOc6cccc7c6C(=O)N(C6CCC(=O)NC6=O)C7=O)CC5)c4)c3)cs2)c1 (stereo not drawn) [Compound 33, N-[2-[[4-[3-[2-[4-[4-[2-(2,6-dioxo-3-piperidyl)-1,3-dioxo-isoindolin-4-yl]oxybutanoyl]piperazin-1-yl]-4-pyridyl]phenyl]thiazol-2-yl]amino]-2-oxo-ethyl]-1-methylsulfonyl-pyrrole-3-carboxamide]
> 10 µM | C (‘C’ = Maximum degradation <50%) | > 10 µM | < 50% | CS(=O)(=O)n1ccc(C(=O)NCC(=O)Nc2nc(-c3cccc(-c4ccnc(OCCNC(=O)CCCOc5cccc6c5C(=O)N(C5CCC(=O)NC5=O)C6=O)c4)c3)cs2)c1 (stereo not drawn) [Compound 36, N-[2-[[4-[3-[2-[2-[4-[2-(2,6-dioxo-3-piperidyl)-1,3-dioxo-isoindolin-4-yl]oxybutanoylamino]ethoxy]-4-pyridyl]phenyl]thiazol-2-yl]amino]-2-oxo-ethyl]-1-methylsulfonyl-pyrrole-3-carboxamide]
> 10 µM | C (‘C’ = Maximum degradation <50%) | > 10 µM | < 50% | CS(=O)(=O)n1ccc(C(=O)NCC(=O)Nc2nc(-c3cccc(-c4ccnc(OCCNC(=O)C5CC5CNC(=O)COc5cccc6c5C(=O)N(C5CCC(=O)NC5=O)C6=O)c4)c3)cs2)c1 (stereo not drawn) [Compound 37, N-[2-[[4-[3-[2-[2-[[2-[[[2-[2-(2,6-dioxo-3-piperidyl)-1,3-dioxoisoindolin-4-yl]oxyacetyl]amino]methyl]cyclopropanecarbonyl]amino]ethoxy]-4-pyridyl]phenyl]thiazol-2-yl]amino]-2-oxoethyl]-1-methylsulfonyl-pyrrole-3-carboxamide]
> 10 µM | C (‘C’ = Maximum degradation <50%) | 0.1 to 1 µM | > 75% | CS(=O)(=O)n1ccc(C(=O)NCC(=O)Nc2nc(-c3cccc(-c4ccnc(OCCNC(=O)CCOCCOCCOc5ccc6c(c5)C(=O)N(C5CCC(=O)NC5=O)C6=O)c4)c3)cs2)c1 (stereo not drawn) [Compound 38, N-(2-((4-(3-(2-(2-(3-(2-(2-((2-(2,6-dioxopiperidin-3-yl)-1,3-dioxoisoindolin-5-yl)oxy)ethoxy)ethoxy)propanamido)ethoxy)pyridin-4-yl)phenyl)thiazol-2-yl)amino)-2-oxoethyl)-1-(methylsulfonyl)-1H-pyrrole-3-carboxamide]
> 10 µM | C (‘C’ = Maximum degradation <50%) | 0.1 to 1 µM | 50 to 75% | CS(=O)(=O)n1ccc(C(=O)NCC(=O)Nc2nc(-c3cccc(-c4cccc(CNC(=O)CCCCCCOc5cccc6c5C(=O)N(C5CCC(=O)NC5=O)C6=O)c4)c3)cs2)c1 (stereo not drawn) [Compound 43, N-(2-((4-(3′-((7-((2-(2,6-dioxopiperidin-3-yl)-1,3-dioxoisoindolin-4-yl)oxy)heptanamido)methyl)-[1,1′-biphenyl]-3-yl)thiazol-2-yl)amino)-2-oxoethyl)-1-(methylsulfonyl)-1H-pyrrole-3-carboxamide]

— US12662479B2 (Foghorn Therapeutics Inc., priority 2020, dated 2026)
